US12251424B2, “Methods of protecting vascular integrity induced by targeted radiation therapy” (Janssen Pharmaceutica NV, priority 2017, dated 2025)

Tests used:
penile artery = assay: CD31 staining and quantification of penile arteries after prostate RT; type: in vivo, Sprague Dawley rats
Method: (§1) Thirty-five eight-week-old male Sprague Dawley rats were obtained from Charles River Laboratories (Malvern, Pa.) and pair-housed under standard housing conditions. Animals were divided into 4 groups: Saline/Sham, Saline RT, TPOm/Sham, TPOm/RT.
(§2) TPOm was administered as a single dose via sub-cutaneous injection (3,000 μg/kg) 10 minutes after RT.
(§3) Stereotactic image-guided prostate single fraction RT was performed as published previously (Kimura et al., J. Sex Med. 9(6):1535-49 (2012)). In brief, rats were anesthetized and immobilized on a polystyrene block. A CT scan was performed to image the entire pelvis using a GE Discovery RT590 (GE Healthcare, Little Chalfont, UK). Individualized treatment plans were prepared for each rat using the Eclipse treatment planning system (Varian Medical Systems, Palo Alto, CA). […]
Penises were snap-frozen in liquid nitrogen and stored at −80° C. until use. […] CD31 expression was then quantified by highlighting only the CD31 stained portion surrounding each vessel, and obtaining a pixel count of the stained region, using a uniform threshold across all images. […]
(§4) Statistical analysis was completed using Prism 6 (GraphPad, LaJolla, CA). […] Rat weight was assessed using a two-way repeated measures ANOVA.

[1] = Rat weight gain after 20 Gy targeted prostate RT; type: in vivo, Sprague Dawley rats
Method: as §1, §2
as §3, with “CA). The prostate and rectum were contoured, with the primary treatment volume generated by expansion of the prostate by 1 mm followed by subtraction of the rectum expanded by 1 mm. A single, dynamic conformal arc plan using a beam energy of 6 MV was normalized to deliver 20 Gy to 95% of the primary treatment volume in a single fraction with partial sparing of the rectum.” for “CA).”
as §4

internal pudendal artery = assay: Ultrasonographic measurement of hydralazine-induced vasodilation after prostate RT; type: in vivo, Sprague Dawley rats
Method: as §1, §2
(§5) Stereotactic image-guided prostate single fraction RT was performed as published previously (Kimura et al., J. Sex Med. 9(6):1535-49 (2012)). In brief, rats were anesthetized and immobilized on a polystyrene block. A CT scan was performed to image the entire pelvis using a GE Discovery RT590 (GE Healthcare, Little Chalfont, UK). Individualized treatment plans were prepared for each rat using the Eclipse treatment planning system (Varian Medical Systems, Palo Alto, CA). The prostate and rectum were contoured, with the primary treatment volume generated by expansion of the prostate by 1 mm followed by subtraction of the rectum expanded by 1 mm. A single, dynamic conformal arc plan using a beam energy of 6 MV was normalized to deliver 20 Gy to 95% of the primary treatment volume in a single fraction with partial sparing of the rectum. The majority of the bladder, the penis and the testes were excluded from the field. The rat was then treated on a NovalisTx radiosurgery linac (Brainlab AG, Munich, DE and Varian Medical Systems) using cone beam computed tomography prior to treatment with bony image guidance within the same anesthesia window as planning. Sham irradiated rats were anesthetized and immobilized on a polystyrene block without irradiation.
Following ICP measurements, acoustic gel was applied to the prostate area and a mouse high frequency echo transducer (MS5505) was applied to the internal pudendal artery. […] Reproducible US placement was verified by using the same US-measured distance to the pubic bone in all animals. […] Arterial diameter was measured using the vascular package for Vevo 2100 software.
as §4

ear vasculature [2] = assay: Murine ear vein model: leukocyte-endothelial cell (L/E) interactions (acridine orange intravital microscopy); type: in vivo, Flk1-mCherry mice
Source text: (§6) Immediately prior to injection, aliquots were thawed and diluted.
(§7) Mice were anesthetized via isoflurane (2%, mixed with oxygen) and the ear was chemically depilated (Nair™) and cleaned with 70% ethanol. The mouse was placed on a heated stage underneath a Zeiss Observer.Z1 (Carl Zeiss AG, Oberkochen, Germany) inverted microscope. The irradiated ear was affixed to a plexi-glass slide using double-sided tape. Images were acquired using Zen Imaging software (Carl Zeiss AG, Oberkochen, Germany). The vascular endothelial cells in Flk1-mCherry mice express mCherry, which was visualized using a Zeiss Texas Red filter (Ex. 560/40; Em. 630/75). Acridine orange and FITC-dextran were visualized using a Zeiss eGFP/FITC/Alexa488 filter (Ex. 470/40; Em. 525/50).
After orienting the mouse on the microscope, 0.5 mg of acridine orange (Sigma, St. Louis, MO; dissolved in sterile saline) was injected intravenously. […] Four venules per mouse were identified, based on their diameter, and the number of leukocytes that rolled past three pre-selected points in each venule were counted. The vessel diameter (D) and free-flowing leukocyte velocities (V) were also measured, and used to calculate shear rate, defined as (8×V)/D. All videos were analyzed by researchers blinded to the treatment groups. […]
B), and slopes were calculated for each individual mouse using GraphPad Prism. […]

erectile function = assay: Intracavernous pressure (ICP) measurements, radiation-induced erectile dysfunction; type: in vivo, Sprague Dawley rats
Method: as §1, §2, §5
For intracavernous pressure (ICP) measurements, a previously published protocol was followed (Kimura et al., J. Sex Med. 8(8):2215-26 (2011)). […] MAP and ICP were recorded using LabChart 7 software (ADInstruments, Colorado Spring, CO), and expressed as a ratio to minimize inter-rat differences in baseline pressure and effects of anesthesia.
as §4

[3] = 3,000 μg/kg; administered at multiple time points; whole body radiation; cited from earlier work
ear vasculature [4] = assay: Murine ear vein model: vascular permeability (FITC-dextran, intravital microscopy, Patlak analysis); type: in vivo, Flk1-mCherry mice; conditions: TPOm following radiation; days 3 and 7 post-irradiation
Source text: as §6, §7
After orienting the mouse on the microscope, a 30G needle attached to a syringe with Tygon Microbore tubing catheter (Harvard Apparatus) was inserted into the tail vain. Z-stack images of both the FITC and mCherry channels were acquired every 10 seconds, and 0.5 mg of FITC-conjugated 70 kDa dextran injected through the catheter after the third set image of images was collected. […]
Model (0.1) postulates that the change in tissue concentration at time t is proportional to CB(t-Δ), concentration of dextran in the vasculature at a delay Δ. […] In this setting, the quantity of interest is k1, the permeability rate. […]

[5] = mouse, in vivo
Method: Male and female mice of at least 8 weeks of age were transferred to a non-barrier facility and group housed throughout the experiments.
Mice were anesthetized with 80/8 mg/kg ketamine/xylazine i.p. injection. Mice were placed in cylindrical lead jigs that shielded the entire body with the exception of the left ear pinna and were irradiated using an Orthovoltage X-ray 320 irradiator (Precision X-ray Inc.; North Branford, CT) at a dose rate of 203 cGy/minute (320 kVp/10 mA with a 2 mm Al filter).
TPOm was reconstituted in sterile saline, sterile filtered, aliquoted, and stored at −20° C. until use. Immediately prior to injection, aliquots were thawed and diluted. Mice received 300 μg/kg of TPOm, sub-cutaneously, six hours after radiation.
Mice were euthanized with 50 μL Euthasol (Virbac, Fort Worth, TX) injected intraperitoneally. After mice became non-responsive to toe pinch, but prior to heartbeat cessation, 500 μL of blood was collected by cardiac puncture via heparinized syringe, and immediately vortexed with 20 μL heparin. CBC analysis was conducted using an IDEXX ProCyte Dx Hematology analyzer by the Duke University Veterinary Diagnostic Laboratory.

Substance: methoxypolyethyleneglycol20000-propionyl-L-Isoleucyl-L-Glutamyl-Glycyl-L-Prolyl-L-Threonyl-L-Leucyl-L-Arginyl-L-Glutaminyl-L-2-Naphthylalanyl-L-Leucyl-L-Alanyl-L-Alanyl-L-Arginyl-Sarcosyl-Ne-(methoxypolyethyleneglycol20000-propionyl-L-Isoleucyl-L-Glutamyl-Glycyl-L-Prolyl-L-Threonyl-L-Leucyl-L-Arginyl-L-Glutaminyl-L-2-Naphthylalanyl-L-Leucyl-L-Alanyl-L-Alanyl-L-Arginyl-Sarcosyl-)-Lysinamide [TPOm]
- RT-induced decrease in penile artery cross-sectional area (penile artery; TPOm/RT rats, nine weeks post-RT (FIG. 3B)): not seen
- CD31 density (CD31+ pixels/μm artery perimeter) (penile artery; pair-wise comparison between treatment groups (FIG. 3C)): no pair-wise differences
- mean rate of body weight gain ([1]; TPOm/RT, 20 Gy prostate RT, 3,000 μg/kg s.c. 10 minutes after RT): 28.6±3.9 g/week
- mean rate of body weight gain ([1]; TPOm/sham (no RT), 3,000 μg/kg s.c. single dose): 37.7±3.3 g/week
- change in pudendal artery diameter in response to hydralazine (internal pudendal artery; TPOm following 20 Gy prostate RT, 0.4 mg/kg hydralazine, 9 weeks post-RT): 24.1%±7.2%
- protection from impaired pudendal artery vasodilation following prostate RT (internal pudendal artery; nine weeks post-RT, diameter before and after hydralazine (FIG. 2)): protected rats from impaired pudendal artery vasodilation
- increase in pudendal artery diameter following hydralazine infusion (internal pudendal artery; non-irradiated rats, TPOm alone, 0.4 mg/kg hydralazine, 9 weeks): 10.4%±10%
- average slope of shear rate vs. L/E interactions (ear vasculature [2]; 6 Gy to the ear, 300 μg/kg TPOm s.c. six hours later, 24 hours post-irradiation): −8.7±6.4
- L/E interaction at higher shear rates after RT (ear vasculature [2]; FIG. 9C): prevented L/E interaction at higher shear rates
- mean ICP:MAP versus unirradiated rats treated with saline (erectile function; TPOm alone, no RT): not significantly different
- ED penetrance (ICP:MAP ratio not greater than 0.6) (erectile function; TPOm following 20 Gy prostate RT, 9 weeks): 67%
- prevention of prostate RT (20 Gy) induced erectile dysfunction (erectile function; single dose of TPOm 10 minutes post RT, ICP tested 9 weeks after RT (FIG. 4)): not prevented
- survival compared to placebo [3]: substantial survival benefit
- permeability rates versus non-irradiated controls (ear vasculature [4]): not significantly different from non-irradiated controls
- effect on total leukocytes, neutrophils or lymphocytes [5]: no significant differences
